Experimental data taken from patent publication US8475786B2, “Long-lasting absorption of flavonoids” (Nestec S.A., priority 2006, dated 2013).

Test: Plasma hesperetin levels after ingestion (FIG. 2)
Format: in vivo
From the text: FIG. 2 is a graph comparing the plasma hesperetin levels depending on whether hesperetin-7-glucoside alone is ingested, whether hesperidin alone is ingested or whether a composition according to the present invention is consumed.
Without wishing to be bound by theory, it is thought that this is due to the presence of enzymes which are able to cleave the glucose moiety off, such that hesperetin is readily absorbable.
Without wishing to be bound by theory, it is thought that this is due to the presence of enzymes able to cleave the rutinose moiety of hesperidin only at a later stage of passage through the gastro-intestinal tract.
Thus, the compositions of the present invention advantageously provide a plasma level of hesperetin which is sustained over a longer period of time (cf. FIG. 2).
Indeed, after the ingestion of the compositions of the present invention, the hesperetin plasma levels are maintained for a sustained period of time (FIG. 2).

| SMILES | plasma level of hesperetin (in vivo) | plasma level of hesperetin (after ingestion, FIG. 2) |
| --- | --- | --- |
| COc1ccc(C2CC(=O)c3c(O)cc(OC4OC(CO)C(O)C(O)C4O)cc3O2)cc1O (centres unmarked) [hesperetin-7-glucose, hesperetin-7-glucoside] | sharp peak shortly after ingestion |  |
| COc1ccc([C@@H]2CC(=O)c3c(O)cc(O[C@@H]4O[C@H](CO[C@@H]5O[C@@H](C)[C@H](O)[C@@H](O)[C@H]5O)[C@@H](O)[C@H](O)[C@H]4O)cc3O2)cc1O [hesperidin] |  | appears only later and to a smaller extent |
